# Reference: patent US10519125B2, “Flavagline derivatives” (PIERRE FABRE MEDICAMENT, priority 2014, dated 2019)
# System: MDA-MB-231 human tumor xenograft
# Experiment: Antitumor activity, subcutaneous MDA-MB-231 breast cancer xenografts in SCID mice
# Format: in vivo
# Details: for Activity: q1d5 × 3, MDA-MB-231; for Deaths (%): q1d5 × 3, SCID mice
# Procedure: Subcutaneous xenografts were established with MDA-MD-231 breast cancer cells (ATCC: HTB-26) in SCID mice (Harlan, U.K.). The animals were treated and cared after in accordance with the Guide For the Care and Use of Laboratory Animals (National Research Council, 1996) and with European Directive 86/609/EEC, under the supervision of a staff expert authorized to conduct experimental studies with laboratory animals.
# All the experiments were conducted pursuant to French and local regulations (Department of Veterinary Services, Haute-Garonne, Toulouse) according to the directives of an ethics committee, based on the UKCCCR Guidelines for the Welfare of Animals in Experimental Neoplasia, as indicated above. The implantation of MDA-MB-231 human tumor fragments is carried subcutaneously in the flanks of SCID mice using a trocar and, for the study of tumor growth, the tumors are allowed to reach a median volume of 70-130 mm^3 before starting the studies.
# After randomization in the treatment cages, the inhibitors were administered intravenously according to a g1d5×3 treatment scheme (5 injections per week for 3 weeks). The mice were monitored and weighed daily. The tumors were measured with a slide caliper and the tumor volumes (mm^3) were estimated using the following formula: volume=0.5 (length×width^2). Each experimental group consists of 5 individuals. The efficacy of the treatment was evaluated by analysis of the measurement of the median volume of the treated tumors compared with the median volume of the tumors receiving only carrier (control). The T/C evaluation criterion corresponds to: [(median volume of the treated group, T/median volume of the control group, C)×100]. This T/C ratio is expressed as a percentage. The optimal T/C value corresponds to the ratio which reflects the maximum inhibition of growth obtained during the study. The maximum gains or losses of weight, expressed as a percentage of the initial weight of the animals, as well as the percentage of drug-related deaths (i.e., the percentage of treated animals that died before the assessment) were used to provide an evaluation of the toxicity of the compounds. In accordance with the NCI (National Cancer Institute) criterion, a dose is deemed toxic if it induces weight loss greater than −20% relative to the initial weight of the mouse or if it induces more than 20% deaths (Corbett et al. J Exp Ther Oncol 1996, 1:95-108).
# [1] = Mus musculus, MDA-MB-231, iv, read-out: Opt. T/C (%)
compound,measurement,setting,value
"CNc1nnc([C@H]2[C@@H](O)[C@@]3(O)c4c(OC)cc(OC)cc4O[C@@]3(c3ccc(OC)cc3)[C@@H]2c2ccccc2)o1 (racemic) [Compound 24, rac-(1R,2R,3S,3aR,8bS)-6,8-dimethoxy-3a-(4-methoxyphenyl)-2-(5-(methylamino)-1,3,4-oxadiazol-2-yl)-3-phenyl-2,3,3a,8b-tetrahydro-1H-cyclopenta[b]benzofuran-1,8b-diol]",Activity,2.8 mg/kg intravenously,Active
same,Deaths (%),2.8 mg/kg intravenously,0%
same,response vs control in vivo at 2.8 mg/kg,[1],25%
"COc1ccc([C@@]23Oc4cc(OC)cc(OC)c4[C@]2(O)[C@H](O)[C@H](c2nnc(C)[nH]2)[C@H]3c2ccccc2)cc1 (racemic) [Compound 30, rac-(1R,2S,3S,3aR,8bS)-6,8-dimethoxy-3a-(4-methoxyphenyl)-2-(5-methyl-4H-1,2,4-triazol-3-yl)-3-phenyl-2,3,3a,8b-tetrahydro-1H-cyclopenta[b]benzofuran-1,8b-diol]",Activity,0.7 mg/kg intravenously,Active
same,Deaths (%),0.7 mg/kg intravenously,0%
same,response vs control in vivo at 0.7 mg/kg,[1],15%
"COc1ccc([C@@]23Oc4cc(OCCN(C)C)cc(OC)c4[C@]2(O)[C@H](O)[C@H](c2nnc(N)o2)[C@H]3c2ccccc2)cc1 (racemic) [Compound 21, rac-(1R,2R,3S,3aR,8bS)-2-(5-amino-1,3,4-oxadiazol-2-yl)-6-(2-(dimethylamino)ethoxy)-8-methoxy-3a-(4-methoxyphenyl)-3-phenyl-2,3,3a,8b-tetrahydro-1H-cyclopenta[b]benzofuran-1,8b-diol]",Activity,1 mg/kg intravenously,Active
same,Deaths (%),1 mg/kg intravenously,0%
same,response vs control in vivo at 1 mg/kg,[1],22%
"COc1ccc([C@@]23Oc4cc(OC)cc(OC)c4[C@]2(O)[C@H](O)[C@H](c2nnc(N)o2)[C@H]3c2ccccc2)cc1 [Compound 19, (1R,2R,3S,3aR,8bS)-2-(5-amino-1,3,4-oxadiazol-2-yl)-6,8-dimethoxy-3a-(4-methoxyphenyl)-3-phenyl-2,3,3a,8b-tetrahydro-1H-cyclopenta[b]benzofuran-1,8b-diol]",Activity,1.3 mg/kg intravenously,Active
same,Deaths (%),1.3 mg/kg intravenously,0%
same,response vs control in vivo at 1.3 mg/kg,[1],26%
"COc1ccc([C@@]23Oc4cc(OCCN5CCN(C)CC5)cc(OC)c4[C@]2(O)[C@H](O)[C@H](c2nnc(N)o2)[C@H]3c2ccccc2)cc1 (racemic) [Compound 22, rac-(1R,2R,3S,3aR,8bS)-2-(5-amino-1,3,4-oxadiazol-2-yl)-8-methoxy-3a-(4-methoxyphenyl)-6-(2-(4-methylpiperazin-1-yl)ethoxy)-3-phenyl-2,3,3a,8b-tetrahydro-1H-cyclopenta[b]benzofuran-1,8b-diol]",Activity,1.4 mg/kg intravenously,Active
same,Deaths (%),1.4 mg/kg intravenously,0%
same,response vs control in vivo at 1.4 mg/kg,[1],21%
"COc1ccc([C@@]23Oc4cc(OC)cc(OC)c4[C@]2(O)[C@H](O)[C@H](c2nnc(N)o2)[C@H]3c2ccccc2)cc1 (racemic) [Compound 18, rac-(1R,2R,3S,3aR,8bS)-2-(5-amino-1,3,4-oxadiazol-2-yl)-6,8-dimethoxy-3a-(4-methoxyphenyl)-3-phenyl-2,3,3a,8b-tetrahydro-1H-cyclopenta[b]benzofuran-1,8b-diol]",Activity,2.5 mg/kg intravenously,Active
same,Deaths (%),2.5 mg/kg intravenously,0%
same,Activity,3.5 mg/kg intravenously,Active
same,Deaths (%),3.5 mg/kg intravenously,0%
same,response vs control in vivo at 2.5 mg/kg,[1],40%
same,response vs control in vivo at 3.5 mg/kg,[1],6%
